Measurements taken from PubChem BioAssay (NCI).
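Growth conditions: 96-well plates. Treatment: test compound, 48 hours, 5 concentrations. Analysis: linear interpolation between bracketing concentrations; unreached endpoints set to highest concentration. Abbreviation: GI50, concentration required for 50% inhibition of growth. The concentration for full growth arrest is given as TGI.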

Tests used:
Experiment in all cases: inhibition of tumour cell growth, NCI panel, 48 h
[1] = tested on: 786-0 renal
[2] = tested on: BT-549 breast
[3] = tested on: CCRF-CEM leukemia
[4] = tested on: K-562 leukemia
[5] = tested on: MDA-N
[6] = tested on: OVCAR-4 ovarian
[7] = tested on: OVCAR-8 ovarian
[8] = tested on: SK-MEL-2 melanoma
[9] = tested on: SK-MEL-5 melanoma

| Compound | TGI [1] | TGI [2] | TGI [3] | TGI [4] | TGI [5] | TGI [6] | TGI [7] | TGI [8] | TGI [9] | GI50 [3] | GI50 [4] | GI50 [6] | GI50 [7] | GI50 [8] | GI50 [9] |
| --- | --- | --- | --- | --- | --- | --- | --- | --- | --- | --- | --- | --- | --- | --- | --- |
| CC(=NNC(=S)Nc1ccccc1)c1cccc(C(C)=NNC(=S)Nc2ccccc2)n1 | 35.4 µM | > 100 µM | > 100 µM | > 53.5 µM | > 100 µM | > 100 µM | > 50.2 µM | > 100 µM | > 40.1 µM |  |  |  |  |  |  |
| Cn1c(SCc2ccc(F)cc2)nnc1C12CC3CC(CC(C3)C1)C2 | > 100 µM |  | 43.3 µM | > 100 µM | > 100 µM | > 100 µM | > 100 µM | > 100 µM | 26.6 µM |  |  |  |  |  |  |
| NC(=O)c1c(NC(=O)c2ccccc2)sc2c1CCC(=O)C2 |  |  | > 100 µM | > 100 µM |  | 2.01 µM | > 100 µM | 7.21 µM | 3.04 µM | 0.37 µM | 0.402 µM | 0.732 µM | 1.33 µM | 2.4 µM | 1.64 µM |
| COc1ccc(-c2nc(SCC(=O)NNC(=S)Nc3ccccc3)[nH]c2-c2ccc(OC)cc2)cc1 | 60.7 µM | 57 µM | > 100 µM | > 100 µM | 50.3 µM | > 100 µM | > 100 µM | 34.7 µM | 28.4 µM |  |  |  |  |  |  |
| COC1=CC(=O)c2c(c(-c3nc(C)cs3)cn2C)C1=O | > 100 µM | > 57.4 µM | 35.1 µM | 20.6 µM | 2.7 µM | 68.7 µM | > 49.6 µM | 10.8 µM | 2.88 µM |  |  |  |  |  |  |
| NS(=O)(=O)c1ccc(NC(=S)/N=C/C2=C(O)c3ccccc3C2=O)cc1 | > 100 µM |  | > 100 µM | > 100 µM | > 100 µM | > 100 µM |  | > 100 µM | > 100 µM |  |  |  |  |  |  |
| O=C1OC(C2Cc3ccc4ccccc4c3C2=O)c2ccccc21 (stereo not drawn) | > 100 µM | > 100 µM | > 100 µM | > 100 µM | > 100 µM | 65.3 µM | > 100 µM | > 100 µM | 98.2 µM |  |  |  |  |  |  |
| Cc1nc(C)c(C(=O)NNC(=O)C[N+](C)(C)C)cc1C(=O)NNC(=O)C[N+](C)(C)C | > 100 µM | > 100 µM |  |  | > 100 µM | > 100 µM | > 100 µM | > 100 µM | > 100 µM |  |  |  |  |  |  |
| O=P(O)(O)C(N=C(Nc1ccccc1)Nc1ccccc1)P(=O)(O)O | > 100 µM | > 100 µM |  |  | > 100 µM |  | > 100 µM |  | > 100 µM |  |  |  |  |  |  |
| Cc1ccc(S(=O)(=O)n2c3c(c4ccccc42)CCN2C[C@H]([C@H](C)Br)CC[C@@H]32)cc1 | > 100 µM |  | > 100 µM | > 100 µM | > 100 µM | > 100 µM | > 100 µM | > 100 µM | > 100 µM |  |  |  |  |  |  |
| CCCNc1ncnc2c1ncn2C | > 100 µM |  | > 100 µM | > 100 µM | > 100 µM | > 100 µM | > 100 µM | > 100 µM | > 100 µM |  |  |  |  |  |  |
| O=c1oc2cc(O)ccc2c(O)c1C(c1ccccc1)c1c(O)c2ccc(O)cc2oc1=O |  | > 100 µM | > 100 µM | > 100 µM | > 100 µM | > 100 µM | > 100 µM | > 100 µM | > 100 µM |  |  |  |  |  |  |
| O=C1c2cc(-c3ccccc3)cnc2S(=O)(=O)N1c1ccc(Br)cc1 | > 100 µM | > 100 µM | > 100 µM |  | > 100 µM |  | > 100 µM | > 100 µM | > 100 µM |  |  |  |  |  |  |
| CCCCCC#CCOC(=O)C(=[N+]=[N-])P(=O)(c1ccccc1)c1ccccc1 | > 10 µM | > 10 µM |  | > 10 µM | > 10 µM |  | > 10 µM |  | > 10 µM |  |  |  |  |  |  |
| CC(C)(C)[Si](C)(C)OCC1OC(n2ccc(=O)[nH]c2=O)C(O[Si](C)(C)C(C)(C)C)/C1=C/C#N (stereo not drawn) | > 100 µM | > 100 µM | > 100 µM |  | > 85.7 µM | > 100 µM | > 100 µM | 42.4 µM | 11.9 µM |  |  |  |  |  |  |
| CSC1=N/C(=C\c2ccc(C)cc2)C(=O)N1CN1CCCCC1 | > 100 µM |  |  | > 100 µM | > 100 µM | > 100 µM | > 100 µM | > 100 µM | > 100 µM |  |  |  |  |  |  |
| COc1cc(O)c2c(c1)C(=O)c1cc3c(c(O)c1C2=O)C(OC1OC(C)C(OC)C(O)C1OC)C(OC)C(C)(O)C3=O (stereo not drawn) | 45.5 µM | 31.6 µM | 41.6 µM | 19.4 µM |  | 15.5 µM | 10.8 µM | 23.5 µM | 3.86 µM |  |  |  |  |  |  |
| O=C1C=C/C(=N\N=C(c2ccccc2)c2ccccc2)O1 | > 10 µM |  | > 10 µM | > 10 µM | > 10 µM | > 10 µM | > 10 µM |  | > 10 µM |  |  |  |  |  |  |
| C=C1C(=O)CC2C1CC(=O)/C(C)=C/CCC(C)(O)C2O (stereo not drawn) | 7.91 µM |  | 13.8 µM | 15.7 µM | 2.86 µM | 29.1 µM | 11.6 µM | 22.9 µM | 17.6 µM |  |  |  |  |  |  |

| Compound | TGI [1] | TGI [2] | TGI [3] | TGI [4] | TGI [5] | TGI [6] | TGI [7] | TGI [8] | TGI [9] | GI50 [3] | GI50 [4] | GI50 [6] | GI50 [7] | GI50 [8] | GI50 [9] |
| --- | --- | --- | --- | --- | --- | --- | --- | --- | --- | --- | --- | --- | --- | --- | --- |
| Cc1nc(C)c(N2CCN([N+](=O)[O-])CC2)c(=O)[nH]1 | > 100 µM | > 100 µM | > 100 µM | > 100 µM | > 100 µM | > 100 µM | > 100 µM |  | > 100 µM |  |  |  |  |  |  |
| C[n+]1c(/C=C/c2c(O)ccc3ccccc23)ccc2ccccc21 |  |  | 17.3 µM | 13.4 µM |  | 10.5 µM | 14.9 µM | 13.3 µM | 10.7 µM | 2.38 µM | 2.22 µM | 3.39 µM | 5.2 µM | 5.91 µM | 4.82 µM |
| C=C(C(=O)OCC)C(=O)OCC | > 100 µM | > 100 µM | > 100 µM | > 100 µM | > 100 µM |  | > 100 µM | > 100 µM | > 100 µM |  |  |  |  |  |  |
| O=C1CC2(CCC(O)(c3ccc4ccccc4c3)C(C(=O)c3ccc4ccccc4c3)C2)C(=O)c2ccccc2N1 (stereo not drawn) |  | > 100 µM | > 100 µM | > 100 µM |  |  | > 100 µM | > 100 µM | > 100 µM |  |  |  |  |  |  |
| CCOc1cc(/C=C2/C(C)=NN(c3cccc(Cl)c3)/C2=N/c2nc3ccccc3s2)ccc1O | > 100 µM |  | > 100 µM | > 100 µM |  |  | > 100 µM | 41.4 µM | 40.2 µM |  |  |  |  |  |  |
| COC(C)(C)C1(O)CC[C@@H](C)CC1=O (stereo partly drawn) | > 100 µM | > 100 µM |  |  | > 100 µM | > 100 µM | > 100 µM |  | > 100 µM |  |  |  |  |  |  |
| CC(c1ccccc1)N1CCN(C(C)c2ccccc2)CC1 (stereo not drawn) | > 100 µM | > 100 µM |  | > 100 µM | > 100 µM | > 100 µM | > 100 µM | > 100 µM | 35.7 µM |  |  |  |  |  |  |
| COc1ccc(C(=O)/C=C/c2ccc(OCCCOc3ccc(/C=C/C(=O)c4ccc(OC)cc4)cc3)cc2)cc1 | > 100 µM |  | > 100 µM | > 100 µM | > 100 µM | > 100 µM | > 100 µM | > 100 µM | > 100 µM |  |  |  |  |  |  |
| Cc1c(/C=N\NC(=S)NCCNC(=S)N/N=C\c2c(C)n(C)n(-c3ccccc3)c2=O)c(=O)n(-c2ccccc2)n1C | > 100 µM | > 100 µM |  |  |  | > 100 µM |  | > 100 µM | > 100 µM |  |  |  |  |  |  |
| C=C1CC(C#N)(C#N)[C@H]2C3CCCC3C[C@@H]12 (stereo partly drawn) (tested in a mixture with another compound) | 36.9 µM | 56.8 µM |  | 82.8 µM |  |  | 33 µM |  | > 100 µM |  |  |  |  |  |  |
| CNc1cc2c(c3ccccc13)C(CCl)CN2C(=O)c1cc2cc(OC)c(OC)c(OC)c2[nH]1 (stereo not drawn) | 0.00346 µM | 0.0333 µM | 0.142 µM |  | 0.00856 µM |  | 0.0124 µM | 0.0197 µM | 0.00435 µM |  |  |  |  |  |  |
| C[C@H](CCC(=O)O)[C@H]1CC[C@H]2[C@@H]3C(=O)C[C@@H]4C[C@H](O)CC[C@]4(C)[C@H]3C[C@H](O)[C@]12C | > 100 µM | > 100 µM | > 100 µM | > 100 µM | > 100 µM | > 100 µM | > 100 µM | > 100 µM |  |  |  |  |  |  |  |
| O=C(NCP(=O)(Oc1ccccc1)Oc1ccccc1)OCc1ccccc1 | > 100 µM | > 100 µM | > 100 µM | > 100 µM |  | > 100 µM | > 100 µM | > 100 µM | > 100 µM |  |  |  |  |  |  |
| COc1cc2c(cc1OC)C1C3CCCCC3CCN1CC2 (stereo not drawn) | > 100 µM |  | > 100 µM | > 100 µM |  | > 100 µM | > 100 µM | > 100 µM | > 100 µM |  |  |  |  |  |  |
| O=C1NC(N2CCOCC2)=N/C1=C\c1ccco1 | > 100 µM | > 100 µM | > 100 µM |  | > 100 µM | > 100 µM | > 100 µM | > 100 µM | > 100 µM |  |  |  |  |  |  |
| COc1ccc(C2OC(c3ccncc3)=NN2C)cc1F (stereo not drawn) | > 100 µM |  | > 100 µM | > 100 µM | > 100 µM | > 100 µM | > 100 µM | > 100 µM | > 100 µM |  |  |  |  |  |  |
| C=CCn1c(=O)c(C(=O)Nc2nc(C34CC5CC(CC(C5)C3)C4)cs2)c(O)c2ccccc21 | > 100 µM | > 100 µM | > 100 µM | > 100 µM | > 100 µM | > 100 µM | > 100 µM |  | > 100 µM |  |  |  |  |  |  |
| O=C1NC2c3c(I)sc(I)c3C(O)C2O1 (stereo not drawn) | > 100 µM |  | > 100 µM | > 100 µM | > 100 µM | > 100 µM | > 100 µM | > 100 µM |  |  |  |  |  |  |  |
